The values below come from US10513495B2, “Polymorph of pimavanserin tartrate and preparation method thereof and use of same” (SHANGHAI BEGREAT PHARMATECH, priority 2016, dated 2019).

A short description of the data set: Powder fluidity test (angle of repose). The class given is physicochemical. Conditions: for powder flowability (in words): Form III compared to existing Pimavanserin tartrate Form A, B and C; for angle of repose: powder through two funnels onto 7 cm diameter petri dish, α=arc tg(H/R), average of three measurements, ≤30 degrees good, >40 degrees very poor flowability, tartrate. The protocol: Powder fluidity test: the tray is a 7 cm diameter petri dish. The two glass funnels are overlapped on the iron frame. The distance between the lower funnel outlet and the Petri dish is 3.5-6.0 cm. Pimavanserin tartrate salt was added slowly from the upper funnel, and the sample was gradually accumulated on the petri dish through the buffer of the two funnels to form a cone until the highest cone was obtained. Determine the height H of the cone, measure each sample three times, take the average value, and calculate the angle of repose according to the following formula: α=arc tg(H/R) where α is the angle of repose and R is the radius of the dish
When the angle of repose of the powder is less than or equal to 30 degrees, it means the flowability of this powder is good. While in case, 40 degrees or less of the powder angle of repose, this powder can satisfy the demand for fluidity in the production process. When the angle of repose of the powder is more than 40 degrees, it means the very poor flowability of the drug powder which may cause the troubles above mentioned during the drug manufacturing process.

Structures are written as SMILES. Counter-ions that a name gives are not always drawn.

Regarding `CC(C)COc1ccc(CNC(=O)N(Cc2ccc(F)cc2)C2CCN(C)CC2)cc1` [Form C, N-(4-fluorobenzyl)-N-(1-methylpiperidin-4-yl)-N′-[4-(2-methylpropoxy)phenylmethyl]urea tartrate], the “powder flowability (in words)” value is reported as “poor” and the angle of repose was determined as 41°.

As to `CC(C)COc1ccc(CNC(=O)N(Cc2ccc(F)cc2)C2CCN(C)CC2)cc1` [Form III, N-(4-fluorobenzyl)-N-(1-methylpiperidin-4-yl)-N′-[4-(2-methylpropoxy)phenylmethyl]urea tartrate], the “powder flowability (in words)” value is given as “significantly improves the powder flowability” and the angle of repose stood at 32°.

Take `CC(C)COc1ccc(CNC(=O)N(Cc2ccc(F)cc2)C2CCN(C)CC2)cc1` [Form B, N-(4-fluorobenzyl)-N-(1-methylpiperidin-4-yl)-N′-[4-(2-methylpropoxy)phenylmethyl]urea tartrate]: the “powder flowability (in words)” value is “poor” and the angle of repose is 43°.

Consider `CC(C)COc1ccc(CNC(=O)N(Cc2ccc(F)cc2)C2CCN(C)CC2)cc1` [Form A, N-(4-fluorobenzyl)-N-(1-methylpiperidin-4-yl)-N′-[4-(2-methylpropoxy)phenylmethyl]urea tartrate], for which the “powder flowability (in words)” value is listed as “poor” and the angle of repose came out at 45°.
